Laboratory results: ChEMBL document CHEMBL5584348, “Exploring Degradation of Intrinsically Disordered Protein Yes-Associated Protein Induced by Proteolysis TArgeting Chimeras” (J Med Chem, 2024)
pIC50: −log10 of the molar value. Active and inactive are the calls of the source. No cut-off for these calls is given here.

How the values were obtained:
[1] = target: T1, von Hippel-Lindau disease tumor suppressor/Transcriptional coactivator YAP1 (Homo sapiens, UniProt P40337+P46937); test: PROTAC activity at YAP/VHL in human NCI-H226 cells assessed as induction of YAP degradation 10 uM incubated for 48 hrs by Western blot analysis; type: cell-based
Target sequence in this assay (P40337 whole entry, looked up): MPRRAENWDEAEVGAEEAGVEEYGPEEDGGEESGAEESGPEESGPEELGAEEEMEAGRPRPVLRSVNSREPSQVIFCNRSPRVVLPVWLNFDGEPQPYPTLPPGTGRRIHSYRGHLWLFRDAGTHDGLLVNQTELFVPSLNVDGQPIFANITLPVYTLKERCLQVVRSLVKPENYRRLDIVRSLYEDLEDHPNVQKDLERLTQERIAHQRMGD
Target sequence in this assay (P46937 whole entry, looked up): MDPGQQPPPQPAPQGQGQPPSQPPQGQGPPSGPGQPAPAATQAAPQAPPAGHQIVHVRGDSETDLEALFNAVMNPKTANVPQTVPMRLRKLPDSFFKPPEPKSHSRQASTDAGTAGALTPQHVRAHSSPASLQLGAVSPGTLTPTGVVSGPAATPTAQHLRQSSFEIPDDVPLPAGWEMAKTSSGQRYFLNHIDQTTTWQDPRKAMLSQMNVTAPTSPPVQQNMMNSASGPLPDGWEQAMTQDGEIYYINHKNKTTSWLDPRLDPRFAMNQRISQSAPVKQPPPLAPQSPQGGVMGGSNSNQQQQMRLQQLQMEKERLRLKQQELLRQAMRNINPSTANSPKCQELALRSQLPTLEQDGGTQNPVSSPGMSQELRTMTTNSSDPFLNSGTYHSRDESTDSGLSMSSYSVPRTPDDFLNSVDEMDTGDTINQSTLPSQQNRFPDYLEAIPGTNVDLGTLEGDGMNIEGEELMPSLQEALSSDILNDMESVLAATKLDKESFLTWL

NCI-H226 [2] = test: Antiproliferative activity against human NCI-H226 cells assessed as cell killing upto 3.13 uM incubated for 4 days by CCK-8 assay; type: functional, cell-based; conditions: time 4.0 day
[3] = target: Transcriptional enhancer factor TEF-1 (Homo sapiens) (UniProt P28347); test: Inhibition of TEAD transcriptional activity in human HEK293T cells incubated for 24 hrs by luciferase reporter assay; type: cell-based
NCI-H226 [4] = test: Antiproliferative activity against human NCI-H226 cells assessed as cell growth inhibition incubated for 3 days by CCK-8 assay; type: functional, cell-based; conditions: time 3.0 day
[5] = target: T2, Protein cereblon/Transcriptional coactivator YAP1 (Homo sapiens) (UniProt P46937+Q96SW2); test: PROTAC activity at YAP/CRBN in human NCI-H226 cells assessed as induction of YAP degradation at 10 uM incubated for 48 hrs by Western blot analysis; type: cell-based
NCI-H226 [6] = test: Antiproliferative activity against human NCI-H226 cells assessed as cell killing at 10 uM incubated for 3 days by CCK-8 assay; type: functional, cell-based; conditions: time 3.0 day
[7] = target: T1, von Hippel-Lindau disease tumor suppressor/Transcriptional coactivator YAP1; test: PROTAC activity at YAP/VHL in human NCI-H226 cells assessed as induction of YAP degradation at 10 uM incubated for 48 hrs by Western blot analysis; type: cell-based
Target sequence in this assay (P40337 whole entry, looked up): as the sequence (P40337 whole entry, looked up) above
Target sequence in this assay (P46937 whole entry, looked up): as the sequence (P46937 whole entry, looked up) above

[8] = target: T2, Protein cereblon/Transcriptional coactivator YAP1 (Homo sapiens); test: PROTAC activity at YAP/CRBN in human NCI-H226 cells assessed as induction of YAP degradation 10 uM incubated for 48 hrs by Western blot analysis; type: cell-based
[9] = target: T1, von Hippel-Lindau disease tumor suppressor/Transcriptional coactivator YAP1; test: PROTAC activity at YAP/VHL in human NCI-H226 cells assessed as reduction in CTGF expression incubated for 48 hrs by Western blot analysis; type: cell-based; conditions: dose 2.5-20 µM
Target sequence in this assay (P40337 whole entry, looked up): as the sequence (P40337 whole entry, looked up) above
Target sequence in this assay (P46937 whole entry, looked up): as the sequence (P46937 whole entry, looked up) above

[10] = target: T1, von Hippel-Lindau disease tumor suppressor/Transcriptional coactivator YAP1; test: PROTAC activity at YAP/VHL in human NCI-H226 cells assessed as induction of YAP degradation incubated for 48 hrs by Western blot analysis; type: cell-based
Target sequence in this assay (P40337 whole entry): as the sequence (P40337 whole entry, looked up) above
Target sequence in this assay (P46937 whole entry): as the sequence (P46937 whole entry, looked up) above

[11] = target: Transcriptional coactivator YAP1 (Homo sapiens) (UniProt P46937); test: Induction of YAP degradation in human NCI-H290 cells at 5 uM relative to control; type: cell-based
[12] = target: T1, von Hippel-Lindau disease tumor suppressor/Transcriptional coactivator YAP1; test: PROTAC activity at YAP/VHL in human NCI-H226 cells assessed as effect on YAP level at 10 uM incubated for 48 hrs by Western blot analysis; type: cell-based
Target sequence in this assay (P40337 whole entry, looked up): as the sequence (P40337 whole entry, looked up) above
Target sequence in this assay (P46937 whole entry, looked up): as the sequence (P46937 whole entry, looked up) above

NCI-H226 [13] = test: Antiproliferative activity against human NCI-H226 cells assessed as cell killing at 12.5 uM incubated for 3 days by CCK-8 assay; type: functional, cell-based; conditions: time 3.0 day
Huh-7 [14] = test: Antitumor activity against human Huh-7 cells xenografted in immunodeficient male NSG mouse assessed as tumor growth inhibition at 100 mg/kg, po administered every 3 days for 24 days; type: functional; conditions: Huh-7, 576 h, time 24 day, read-out: TGI
[15] = target: T1, von Hippel-Lindau disease tumor suppressor/Transcriptional coactivator YAP1; test: PROTAC activity at YAP/VHL in human NCI-H226 cells assessed as reduction in YAP level at 10 uM incubated for 48 hrs by Western blot analysis; type: cell-based
Target sequence in this assay (P40337 whole entry, looked up): as the sequence (P40337 whole entry, looked up) above
Target sequence in this assay (P46937 whole entry, looked up): as the sequence (P46937 whole entry, looked up) above

NCI-H226 [16] = test: Antiproliferative activity against NF2 deficient- human NCI-H226 cells assessed as maximum cell growth inhibition incubated for 4 days by CCK-8 assay relative to control; type: functional; conditions: time 4 day
Huh-7 [17] = test: Antiproliferative activity against human Huh-7 cells overexpressing YAP assessed as cell growth inhibition incubated for 4 days by CCK-8 assay; type: functional, cell-based; conditions: Huh-7, 96 h
NCI-H226 [18] = test: Antiproliferative activity against NF2 deficient- human NCI-H226 cells assessed as cell growth inhibition incubated for 4 days by CCK-8 assay; type: functional, cell-based; conditions: NCI-H226, 96 h
[19] = target: T2, Protein cereblon/Transcriptional coactivator YAP1 (Homo sapiens); test: PROTAC activity at YAP/CRBN in human NCI-H226 cells assessed as effect on YAP level at 10 uM incubated for 48 hrs by Western blot analysis; type: cell-based

T2 sequence (P46937 whole entry, looked up): as above
T2 sequence (Q96SW2 whole entry, looked up): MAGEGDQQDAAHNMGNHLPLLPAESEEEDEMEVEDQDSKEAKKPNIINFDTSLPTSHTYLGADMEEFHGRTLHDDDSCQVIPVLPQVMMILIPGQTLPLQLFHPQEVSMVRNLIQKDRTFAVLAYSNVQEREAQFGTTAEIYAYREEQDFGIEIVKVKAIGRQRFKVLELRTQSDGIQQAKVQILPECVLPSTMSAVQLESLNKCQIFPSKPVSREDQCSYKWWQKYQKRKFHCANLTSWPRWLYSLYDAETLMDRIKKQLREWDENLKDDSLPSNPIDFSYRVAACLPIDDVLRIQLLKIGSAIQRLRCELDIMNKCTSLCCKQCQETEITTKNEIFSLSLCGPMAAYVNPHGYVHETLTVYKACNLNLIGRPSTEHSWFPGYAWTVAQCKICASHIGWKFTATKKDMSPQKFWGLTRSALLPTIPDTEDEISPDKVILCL
Sequence of Transcriptional enhancer factor TEF-1 (Homo sapiens) (P28347 whole entry): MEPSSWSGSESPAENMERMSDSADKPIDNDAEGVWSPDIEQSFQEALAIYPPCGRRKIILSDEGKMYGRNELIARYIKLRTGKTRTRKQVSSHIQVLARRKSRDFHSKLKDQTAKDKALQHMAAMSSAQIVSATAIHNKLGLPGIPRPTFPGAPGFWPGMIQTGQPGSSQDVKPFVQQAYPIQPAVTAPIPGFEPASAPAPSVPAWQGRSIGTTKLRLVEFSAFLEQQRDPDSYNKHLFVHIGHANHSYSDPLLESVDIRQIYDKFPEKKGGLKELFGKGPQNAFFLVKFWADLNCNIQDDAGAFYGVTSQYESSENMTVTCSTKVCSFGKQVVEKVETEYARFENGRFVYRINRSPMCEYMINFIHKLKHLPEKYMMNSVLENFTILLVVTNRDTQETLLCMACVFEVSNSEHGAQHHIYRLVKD
Sequence of Transcriptional coactivator YAP1 (Homo sapiens) (P46937 whole entry): as the sequence (P46937 whole entry, looked up) above

COc1ccc(-c2cc(-c3ccc(OCCCCCCCC(=O)N[C@H](C(=O)N4C[C@H](O)C[C@H]4C(=O)N[C@@H](C)c4ccc(-c5scnc5C)cc4)C(C)(C)C)cc3)nc3c2CC(=O)Nc2ccccc2-3)cc1OC
Activity [1]: inactive
Activity (NCI-H226 [2]): inactive

COc1ccc(-c2cc(-c3ccccc3)nc3c2CC(=O)Nc2ccccc2-3)cc1O
TEAD transcriptional inhibition (active/inactive call) [3]: Active

COc1ccc(-c2cc(-c3ccccc3)nc3c2CC(=O)Nc2ccccc2-3)cc1OCC(=O)NCCOCCNc1cccc2c1C(=O)N(C1CCC(=O)NC1=O)C2=O (configuration not stated)
Activity (NCI-H226 [4]): Active
Activity [5]: inactive
Activity (NCI-H226 [6]): inactive

COc1ccc(-c2cc(-c3ccccc3)nc3c2CC(=O)Nc2ccccc2-3)cc1OCc1ccccc1
TEAD transcriptional inhibition (active/inactive call) [3]: Active

COc1ccc(-c2cc(-c3ccc(OCCOCCOCCC(=O)N[C@H](C(=O)N4C[C@H](O)C[C@H]4C(=O)N[C@@H](C)c4ccc(-c5scnc5C)cc4)C(C)(C)C)cc3)nc3c2CC(=O)Nc2ccccc2-3)cc1OC
Activity [1]: inactive
Activity (NCI-H226 [2]): inactive

COc1ccc(-c2cc(-c3ccc(OCCCCCCCCCC(=O)N[C@H](C(=O)N4C[C@H](O)C[C@H]4C(=O)N[C@@H](C)c4ccc(-c5scnc5C)cc4)C(C)(C)C)cc3)nc3c2CC(=O)Nc2ccccc2-3)cc1OC
Activity [1]: inactive
Activity (NCI-H226 [2]): inactive

COc1cc(-c2cc(-c3ccccc3)nc3c2CC(=O)Nc2ccccc2-3)ccc1O
TEAD transcriptional inhibition (active/inactive call) [3]: Active

COc1cc(-c2cc(-c3ccccc3)nc3c2CC(=O)Nc2ccccc2-3)ccc1OCCOCCC(=O)N[C@H](C(=O)N1C[C@H](O)C[C@H]1C(=O)N[C@@H](C)c1ccc(-c2scnc2C)cc1)C(C)(C)C
Activity (NCI-H226 [6]): inactive

COc1ccc(-c2cc(-c3ccccc3)nc3c2CC(=O)Nc2ccccc2-3)cc1OCCOCCOCCC(=O)N[C@H](C(=O)N1C[C@H](O)C[C@H]1C(=O)N[C@@H](C)c1ccc(-c2scnc2C)cc1)C(C)(C)C
Activity (NCI-H226 [4]): Active
Activity [7]: inactive
Activity (NCI-H226 [6]): inactive

COc1ccc(-c2cc(-c3ccccc3)nc3c2CC(=O)Nc2ccccc2-3)cc1OCC(=O)NCCOCCOCCOCCNc1cccc2c1C(=O)N(C1CCC(=O)NC1=O)C2=O (configuration not stated)
Activity (NCI-H226 [4]): Active
Activity [5]: inactive
Activity (NCI-H226 [6]): inactive

CC(=O)c1ccc(OCc2ccccc2)cc1
TEAD transcriptional inhibition (active/inactive call) [3]: Active

COc1cc(-c2cc(-c3ccccc3)nc3c2CC(=O)Nc2ccccc2-3)ccc1OCCCCCC(=O)N[C@H](C(=O)N1C[C@H](O)C[C@H]1C(=O)N[C@@H](C)c1ccc(-c2scnc2C)cc1)C(C)(C)C
Activity (NCI-H226 [6]): inactive

COc1cc(-c2cc(-c3ccccc3)nc3c2CC(=O)Nc2ccccc2-3)ccc1OCC(=O)NCCOCCNc1cccc2c1C(=O)N(C1CCC(=O)NC1=O)C2=O (configuration not stated)
Activity (NCI-H226 [6]): inactive

COc1ccc(-c2cc(-c3ccc(OCC(=O)NCCOCCNc4cccc5c4C(=O)N(C4CCC(=O)NC4=O)C5=O)cc3)nc3c2CC(=O)Nc2ccccc2-3)cc1OC (configuration not stated)
Activity [8]: inactive
Activity (NCI-H226 [2]): inactive

COc1ccc(-c2cc(-c3ccccc3)nc3c2CC(=O)Nc2ccccc2-3)cc1OCCOCC(=O)N[C@H](C(=O)N1C[C@H](O)C[C@H]1C(=O)N[C@@H](C)c1ccc(-c2scnc2C)cc1)C(C)(C)C
Activity (NCI-H226 [4]): Active
Activity [7]: inactive
Activity (NCI-H226 [6]): inactive

COc1cc(-c2cc(-c3ccccc3)nc3c2CC(=O)Nc2ccccc2-3)ccc1OCCOCC(=O)N[C@H](C(=O)N1C[C@H](O)C[C@H]1C(=O)N[C@@H](C)c1ccc(-c2scnc2C)cc1)C(C)(C)C
Activity [9]: Dose-Dependent Effect
DC50 [10]: 14.9 µM
Activity (NCI-H226 [6]): inactive

COc1ccc(-c2cc(-c3ccc(OCC(=O)NCCOCCOCCOCCNc4cccc5c4C(=O)N(C4CCC(=O)NC4=O)C5=O)cc3)nc3c2CC(=O)Nc2ccccc2-3)cc1OC (configuration not stated)
Activity [8]: inactive
Activity (NCI-H226 [2]): inactive

COc1ccc(-c2cc(-c3ccc(OCCCCCC(=O)N[C@H](C(=O)N4C[C@H](O)C[C@H]4C(=O)N[C@@H](C)c4ccc(-c5scnc5C)cc4)C(C)(C)C)cc3)nc3c2CC(=O)Nc2ccccc2-3)cc1OC
Activity [1]: inactive
Activity (NCI-H226 [2]): inactive

CN[C@@H](C)C(=O)N[C@H](C(=O)N1CCC[C@H]1c1nc(C(=O)c2cccc(OCCOCCNC(=O)[C@]34CC[C@@H](C(C)=O)[C@@H]3[C@H]3CC[C@@H]5[C@@]6(C)CC[C@H](O)C(C)(C)[C@@H]6CC[C@@]5(C)[C@]3(C)CC4)c2)cs1)C1CCCCC1
Activity [11]: < 50%

COc1cc(-c2cc(-c3ccccc3)nc3c2CC(=O)Nc2ccccc2-3)ccc1OCCCCCCCC(=O)N[C@H](C(=O)N1C[C@H](O)C[C@H]1C(=O)N[C@@H](C)c1ccc(-c2scnc2C)cc1)C(C)(C)C
Activity (NCI-H226 [6]): inactive

COc1ccc(-c2cc(-c3ccccc3)nc3c2CC(=O)Nc2ccccc2-3)cc1OCCOC(C)=O
TEAD transcriptional inhibition (active/inactive call) [3]: Active

COc1cc(-c2cc(-c3ccccc3)nc3c2CC(=O)Nc2ccccc2-3)ccc1OCCCCCCCCCC(=O)N[C@H](C(=O)N1C[C@H](O)C[C@H]1C(=O)N[C@@H](C)c1ccc(-c2scnc2C)cc1)C(C)(C)C
Activity [12]: inactive
Activity (NCI-H226 [13]): inactive

CNC(=O)c1cc(Oc2ccc(NC(=O)Nc3ccc(Cl)c(C(F)(F)F)c3)cc2)ccn1 [SORAFENIB]
inhibition in vivo at 100 mg/kg (Huh-7 [14]): 76%

COc1cc(-c2cc(-c3ccccc3)nc3c2CC(=O)Nc2ccccc2-3)ccc1OCCOC(C)=O
TEAD transcriptional inhibition (active/inactive call) [3]: Active

COc1cc(-c2cc(-c3ccccc3)nc3c2CC(=O)Nc2ccccc2-3)ccc1OCCOCCOCCOCCC(=O)N[C@H](C(=O)N1C[C@H](O)C[C@H]1C(=O)N[C@@H](C)c1ccc(-c2scnc2C)cc1)C(C)(C)C
Activity [15]: Active
Activity (NCI-H226 [6]): inactive

COc1ccc(-c2cc(-c3ccccc3)nc3c2CC(=O)Nc2ccccc2-3)cc1OCCOCCC(=O)N[C@H](C(=O)N1C[C@H](O)C[C@H]1C(=O)N[C@@H](C)c1ccc(-c2scnc2C)cc1)C(C)(C)C
Activity (NCI-H226 [4]): Active
Activity [7]: inactive
Activity (NCI-H226 [6]): inactive

COc1ccc(-c2cc(-c3ccccc3)nc3c2CC(=O)Nc2ccccc2-3)cc1OCC(=O)NCCOCCOCCNc1cccc2c1C(=O)N(C1CCC(=O)NC1=O)C2=O (configuration not stated)
Activity (NCI-H226 [4]): Active
Activity [5]: inactive
Activity (NCI-H226 [6]): inactive

COc1cc(-c2cc(-c3ccccc3)nc3c2CC(=O)Nc2ccccc2-3)ccc1OCC(=O)NCCOCCOCCNc1cccc2c1C(=O)N(C1CCC(=O)NC1=O)C2=O (configuration not stated)
Activity (NCI-H226 [6]): inactive

COc1ccc(-c2cc(-c3ccccc3)nc3c2CC(=O)Nc2ccccc2-3)cc1OC
inhibition (INH) (NCI-H226 [16]): 95%
pIC50 (Huh-7 [17]): 4.16
pIC50 (NCI-H226 [18]): 5.41

COc1cc(-c2cc(-c3ccccc3)nc3c2CC(=O)Nc2ccccc2-3)ccc1OCC(=O)NCCOCCOCCOCCNc1cccc2c1C(=O)N(C1CCC(=O)NC1=O)C2=O (configuration not stated)
Activity [19]: inactive
Activity (NCI-H226 [13]): inactive

COc1ccc(-c2cc(-c3ccc(OCC(=O)NCCOCCOCCNc4cccc5c4C(=O)N(C4CCC(=O)NC4=O)C5=O)cc3)nc3c2CC(=O)Nc2ccccc2-3)cc1OC (configuration not stated)
Activity [8]: inactive
Activity (NCI-H226 [2]): inactive
